≈ marks a conversion by molar mass, not a printed value.
Each molecule was assayed on Enterococcus faecalis ATCC 29212 (assay: MIC against Enterococcus faecalis ATCC 29212). Details: ATCC29212; Enterococcus faecalis ATCC 29212; read-out: MICs against Enterococcus faecalis, Activity.
Assay type: cell-based
How it was run: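 MIC measured by broth microdilution or agar dilution following CLSI guidelines (M7-A7 for aerobes, M11-A6 for anaerobes).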

Row | MIC | Structure (SMILES)
1 | 0.25 to 1 µg/mL (≈ 0.686 to 2.74 µM) | CCNC(=O)Nc1nc2cc(-c3ccoc3)cc(-c3ccccn3)c2s1 [Example 37, 1-Ethyl-3-(5-furan-3-yl-7-pyridin-2-yl-benzothiazol-2-yl)-urea]
2 | 2 to 16 µg/mL (≈ 5.11 to 40.9 µM) | CCNC(=O)Nc1nc2cc(-c3ccccn3)cc(-c3cnc(N)nc3)c2s1 [Example 74, 1-[7-(2-Amino-pyrimidin-5-yl)-5-pyridin-2-yl-benzothiazol-2-yl]-3-ethyl-urea]
3 | < 0.25 µg/mL | CCNC(=O)Nc1nc2cc(-c3cccnc3)cc(-c3nc(C)ccc3C#N)c2s1 [Example 103, 1-[7-(3-Cyano-6-methyl-pyridin-2-yl)-5-pyridin-3-yl-benzothiazol-2-yl]-3-ethyl-urea]
4 | 0.25 to 1 µg/mL (≈ 0.655 to 2.62 µM) | CCNC(=O)Nc1nc2cc(-c3cccnc3)cc(-c3cscn3)c2s1 [Example 158, 1-Ethyl-3-(5-pyridin-3-yl-7-thiazol-4-yl-benzothiazol-2-yl)-urea]
5 | < 0.25 µg/mL | CCNC(=O)Nc1nc2cc(-c3cccnc3)cc(-c3cc(OC)ccn3)c2s1 [Example 112, 1-Ethyl-3-[7-(4-methoxy-pyridin-2-yl)-5-pyridin-3-yl-benzothiazol-2-yl]-urea]
6 | 2 to 16 µg/mL (≈ 4.94 to 39.6 µM) | CCNC(=O)Nc1nc2cc(-c3ccc(CO)cc3)cc(-c3cccnc3)c2s1 [Example 18, 1-Ethyl-3-[5-(4-hydroxymethyl-phenyl)-7-pyridin-3-yl-benzothiazol-2-yl]-urea]
7 | < 0.25 µg/mL | CCNC(=O)Nc1nc2cc(-c3cccnc3)cc(-c3nccc4cc[nH]c34)c2s1 [Example 115, 1-Ethyl-3-[5-pyridin-3-yl-7-(1H-pyrrolo[2,3-c]pyridin-7-yl)-benzothiazol-2-yl]-urea]
8 | 0.25 to 1 µg/mL (≈ 0.617 to 2.47 µM) | CCNC(=O)Nc1nc2cc(-c3ccc(OC)nc3)cc(-c3cccnc3)c2s1 [Example 29, 1-Ethyl-3-[5-(6-methoxy-pyridin-3-yl)-7-pyridin-3-yl-benzothiazol-2-yl]-urea]
9 | 2 to 16 µg/mL (≈ 5.49 to 43.9 µM) | CCNC(=O)Nc1nc2cc(-n3cccn3)cc(-c3cccnc3)c2s1 [Example 12, 1-Ethyl-3-(5-pyrazol-1-yl-7-pyridin-3-yl-benzothiazol-2-yl)-urea]
10 | < 0.25 µg/mL | CCNC(=O)Nc1nc2cc(-c3cccnc3)cc(-c3cccc(N)n3)c2s1 [Example 125, 1-[7-(6-Amino-pyridin-2-yl)-5-pyridin-3-yl-benzothiazol-2-yl]-3-ethyl-urea]
11 | < 0.25 µg/mL | CCNC(=O)Nc1nc2cc(-c3cccnc3)cc(-c3ncccc3Cl)c2s1 [Example 126, 1-[7-(3-Chloro-pyridin-2-yl)-5-pyridin-3-yl-benzothiazol-2-yl]-3-ethyl-urea]
12 | 2 to 16 µg/mL (≈ 4.62 to 37 µM) | CCNC(=O)Nc1nc2cc(-c3cccnc3)cc(-c3ccc(CN(C)C)cn3)c2s1 [Example 132, 1-[7-(5-Dimethylaminomethyl-pyridin-2-yl)-5-pyridin-3-yl-benzothiazol-2-yl]-3-ethyl-urea]
13 | 2 to 16 µg/mL (≈ 4.08 to 32.7 µM) | CCNC(=O)Nc1nc2cc(-c3cncc(C(=O)NCCN(C)C)c3)cc(-c3ccccn3)c2s1 [Example 64, N-(2-Dimethylamino-ethyl)-5-[2-(3-ethyl-ureido)-7-pyridin-2-yl-benzothiazol-5-yl]-nicotinamide]
14 | < 0.25 µg/mL | CCNC(=O)Nc1nc2cc(-c3cccnc3)cc(-c3cc(C#N)ccn3)c2s1 [Example 119, 1-[7-(4-Cyano-pyridin-2-yl)-5-pyridin-3-yl-benzothiazol-2-yl]-3-ethyl-urea]
15 | 0.25 to 1 µg/mL (≈ 0.617 to 2.47 µM) | CCNC(=O)Nc1nc2cc(-c3ccnc(OC)c3)cc(-c3ccccn3)c2s1 [Example 40, 1-Ethyl-3-[5-(2-methoxy-pyridin-4-yl)-7-pyridin-2-yl-benzothiazol-2-yl]-urea]
16 | 0.25 to 1 µg/mL (≈ 0.527 to 2.11 µM) | CCNC(=O)Nc1nc2cc(-c3cccnc3)cc(-c3ccc(CN4CCOCC4)cn3)c2s1 [Example 120, 1-Ethyl-3-[7-(5-morpholin-4-ylmethyl-pyridin-2-yl)-5-pyridin-3-yl-benzothiazol-2-yl]-urea]
17 | 0.25 to 1 µg/mL (≈ 0.578 to 2.31 µM) | CCNC(=O)Nc1nc2cc(-c3ccc(NC(C)=O)nc3)cc(-c3cccnc3)c2s1 [Example 20, N-{5-[2-(3-Ethyl-ureido)-7-pyridin-3-yl-benzothiazol-5-yl]-pyridin-2-yl}-acetamide]
18 | 0.25 to 1 µg/mL (≈ 0.739 to 2.95 µM) | CCNC(=O)Nc1nc2cc(-c3cccnc3)cc(C3CC3)c2s1 [Example 79, 1-(7-Cyclopropyl-5-pyridin-3-yl-benzothiazol-2-yl)-3-ethyl-urea]
19 | < 0.25 µg/mL | CCNC(=O)Nc1nc2cc(-c3ccc(CC(=O)NC)nc3)cc(-c3ccccn3)c2s1 [Example 70, 2-{5-[2-(3-Ethyl-ureido)-7-pyridin-2-yl-benzothiazol-5-yl]-pyridin-2-yl}-N-methyl-acetamide]
20 | 0.25 to 1 µg/mL (≈ 0.739 to 2.95 µM) | C=CCc1cc(-c2cccnc2)cc2nc(NC(=O)NCC)sc12 [Example 156, 1-(7-Allyl-5-pyridin-3-yl-benzothiazol-2-yl)-3-ethyl-urea]
21 | < 0.25 µg/mL | CCNC(=O)Nc1nc2cc(-c3ccc(CN4CCOCC4)nc3)cc(-c3ccccn3)c2s1 [Example 59, 1-Ethyl-3-[5-(6-morpholin-4-ylmethyl-pyridin-3-yl)-7-pyridin-2-yl-benzothiazol-2-yl]-urea]
22 | < 0.25 µg/mL | CCNC(=O)Nc1nc2cc(-c3ccc(C#N)nc3)cc(-c3ccccn3)c2s1 [Example 33, 1-[5-(6-Cyano-pyridin-3-yl)-7-pyridin-2-yl-benzothiazol-2-yl]-3-ethyl-urea]

Row | MIC | Structure (SMILES)
23 | 0.25 to 1 µg/mL (≈ 0.47 to 1.88 µM) | CCNC(=O)Nc1nc2cc(-c3cncc(C(=O)NCCN4CCOCC4)c3)cc(-c3ccccn3)c2s1 [Example 68, 5-[2-(3-Ethyl-ureido)-7-pyridin-2-yl-benzothiazol-5-yl]-N-(2-morpholin-4-yl-ethyl)-nicotinamide]
24 | 0.25 to 1 µg/mL (≈ 0.61 to 2.44 µM) | CCNC(=O)Nc1nc2cc(-c3cccnc3)cc(-c3sc(C)nc3C)c2s1 [Example 102, 1-[7-(2,4-Dimethyl-thiazol-5-yl)-5-pyridin-3-yl-benzothiazol-2-yl]-3-ethyl-urea]
25 | 0.25 to 1 µg/mL (≈ 0.655 to 2.62 µM) | CCNC(=O)Nc1nc2cc(-c3cnn(C)c3)cc(-c3cnn(C)c3)c2s1 [Example 7, 1-[5,7-Bis-(1-methyl-1H-pyrazol-4-yl)-benzothiazol-2-yl]-3-ethyl-urea]
26 | 2 to 16 µg/mL (≈ 5.28 to 42.3 µM) | CCNC(=O)Nc1nc2cc(-c3cccnc3)cc(-c3cncn3C)c2s1 [Example 164, 1-Ethyl-3-[7-(3-methyl-3H-imidazol-4-yl)-5-pyridin-3-yl-benzothiazol-2-yl]-urea]
27 | 0.25 to 1 µg/mL (≈ 0.686 to 2.74 µM) | CCNC(=O)Nc1nc2cc(-c3cccnc3)cc(-c3cn[nH]c3)c2s1 [Example 80, 1-Ethyl-3-[7-(1H-pyrazol-4-yl)-5-pyridin-3-yl-benzothiazol-2-yl]-urea]
28 | < 0.25 µg/mL | CCNC(=O)Nc1nc2cc(-c3cccnc3)cc(-c3ncccc3OC)c2s1 [Example 118, 1-Ethyl-3-[7-(3-methoxy-pyridin-2-yl)-5-pyridin-3-yl-benzothiazol-2-yl]-urea]
29 | 0.25 to 1 µg/mL (≈ 0.542 to 2.17 µM) | CCNC(=O)Nc1nc2cc(-c3ccc(NCCN(C)C)nc3)cc(-c3ccccn3)c2s1 [Example 61, 1-{5-[6-(2-Dimethylamino-ethylamino)-pyridin-3-yl]-7-pyridin-2-yl-benzothiazol-2-yl}-3-ethyl-urea]
30 | 0.25 to 1 µg/mL (≈ 0.617 to 2.47 µM) | CCNC(=O)Nc1nc2cc(-c3cccnc3)cc(-c3cccnc3OC)c2s1 [Example 85, 1-Ethyl-3-[7-(2-methoxy-pyridin-3-yl)-5-pyridin-3-yl-benzothiazol-2-yl]-urea]
31 | 0.25 to 1 µg/mL (≈ 0.564 to 2.26 µM) | CCNC(=O)Nc1nc2cc(-c3cccnc3)cc(-c3ccc(C(F)(F)F)cn3)c2s1 [Example 129, 1-Ethyl-3-[5-pyridin-3-yl-7-(5-trifluoromethyl-pyridin-2-yl)-benzothiazol-2-yl]-urea]
32 | 0.25 to 1 µg/mL (≈ 0.56 to 2.24 µM) | CCNC(=O)Nc1nc2cc(-c3cnc4c(c3)NC(=O)CO4)cc(-c3ccccn3)c2s1 [Example 54, 1-Ethyl-3-[5-(2-oxo-2,3-dihydro-1H-pyrido[2,3-b][1,4]oxazin-7-yl)-7-pyridin-2-yl-benzothiazol-2-yl]-urea]
33 | < 0.25 µg/mL | CCNC(=O)Nc1nc2cc(-c3ccc(C#N)nc3)cc(-c3cccnc3)c2s1 [Example 27, 1-[5-(6-Cyano-pyridin-3-yl)-7-pyridin-3-yl-benzothiazol-2-yl]-3-ethyl-urea]
34 | 2 to 16 µg/mL (≈ 5.1 to 40.8 µM) | CCNC(=O)Nc1nc2cc(Br)cc(-c3ccc(N)nc3)c2s1 [Example 1, 1-[7-(6-Amino-pyridin-3-yl)-5-bromo-benzothiazol-2-yl]-3-ethyl-urea]
35 | < 0.25 µg/mL | CCNC(=O)Nc1nc2cc(-c3cccnc3)cc(-c3nc4ccccc4s3)c2s1 [Example 117, 1-Ethyl-3-(5′-pyridin-3-yl-[2,7′]bibenzothiazolyl-2′-yl)-urea]
36 | < 0.25 µg/mL | CCNC(=O)Nc1nc2cc(-c3cnccn3)cc(-c3cnccn3)c2s1 [Example 10, 1-(5,7-Di-pyrazin-2-yl-benzothiazol-2-yl)-3-ethyl-urea]
37 | 2 to 16 µg/mL (≈ 4.98 to 39.9 µM) | CCNC(=O)Nc1nc2cc(-c3cnc(C#N)nc3)cc(-c3cccnc3)c2s1 [Example 32, 1-[5-(2-Cyano-pyrimidin-5-yl)-7-pyridin-3-yl-benzothiazol-2-yl]-3-ethyl-urea]
38 | < 0.25 µg/mL | CCNC(=O)Nc1nc2cc(-c3ccc(N)nc3)cc(-c3ccccn3)c2s1 [Example 138, 1-[5-(6-Amino-pyridin-3-yl)-7-pyridin-2-yl-benzothiazol-2-yl]-3-ethyl-urea]
39 | 2 to 16 µg/mL (≈ 5.12 to 41 µM) | CCNC(=O)Nc1nc2cc(-c3cccnc3)cc(-c3ncccc3N)c2s1 [Example 94, 1-[7-(3-Amino-pyridin-2-yl)-5-pyridin-3-yl-benzothiazol-2-yl]-3-ethyl-urea]
40 | < 0.25 µg/mL | CCNC(=O)Nc1nc2cc(-c3cccnc3)cc(-c3ccc(C#N)cn3)c2s1 [Example 107, 1-[7-(5-Cyano-pyridin-2-yl)-5-pyridin-3-yl-benzothiazol-2-yl]-3-ethyl-urea]
41 | 2 to 16 µg/mL (≈ 4.71 to 37.7 µM) | CCNC(=O)Nc1nc2cc(I)cc(-c3cccnc3)c2s1 [Example 8, 1-Ethyl-3-(5-iodo-7-pyridin-3-yl-benzothiazol-2-yl)-urea]
42 | 0.25 to 1 µg/mL (≈ 0.617 to 2.47 µM) | CCNC(=O)Nc1nc2cc(-c3ccn(C)c(=O)c3)cc(-c3cccnc3)c2s1 [Example 47, 1-Ethyl-3-[5-(1-methyl-2-oxo-1,2-dihydro-pyridin-4-yl)-7-pyridin-3-yl-benzothiazol-2-yl]-urea]
43 | < 0.25 µg/mL | CCNC(=O)Nc1nc2cc(-c3ccc(CC(=O)OC)nc3)cc(-c3ccccn3)c2s1 [Example 69, {5-[2-(3-Ethyl-ureido)-7-pyridin-2-yl-benzothiazol-5-yl]-pyridin-2-yl}-acetic acid methyl ester]

From patent US8481544B2, “Antibacterial compositions” (Biota Europe Limited, priority 2006, dated 2013)
